# Biological target: T1, human TGR5 (Homo sapiens, UniProt Q8TDU6)
# T1 construct: expressed in transfected cells; host or cells: HEK293
# T1 sequence (Q8TDU6 1-330): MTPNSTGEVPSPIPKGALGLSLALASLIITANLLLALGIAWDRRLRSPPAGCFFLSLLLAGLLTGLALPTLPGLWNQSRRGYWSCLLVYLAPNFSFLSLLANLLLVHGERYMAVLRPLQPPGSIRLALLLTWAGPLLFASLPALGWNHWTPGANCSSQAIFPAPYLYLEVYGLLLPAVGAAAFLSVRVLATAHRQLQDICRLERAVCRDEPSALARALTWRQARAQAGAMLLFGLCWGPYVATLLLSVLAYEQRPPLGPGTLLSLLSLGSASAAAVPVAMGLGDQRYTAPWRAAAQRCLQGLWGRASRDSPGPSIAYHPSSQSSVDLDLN
# Assay: Cell-based TGR5 assay (cAMP generation, HTRF)
# Settings: HEK293 cells stably transfected with human TGR5; cAMP by HTRF; 30 minutes at 37° C.; read-out: pEC50 Human TGR5 (converted)
# In short: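 Read-out was HTRF detection of cAMP, converted to concentration via a standard curve and fitted (3-parameter logistic) for pEC50 and maximal response. Agonist stimulation used HEK293 cells stably transfected with human TGR5, incubated 30 min at 37° C in IBMX-containing buffer at 0.05 nM to 10 μM compound.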
row,SMILES,EC50
1,"CC(CCCC(=O)N(CCOCCO)C[C@H](O)[C@@H](O)[C@H](O)[C@H](O)CO)c1ccc(Cl)c(CNC2(c3cnccc3-c3ccccc3OC3CC3)CC2)c1 (stereo partly drawn) [Compound I-342, 5-{4-chloro-3-[({1-[4-(2-cyclopropoxyphenyl)pyridin-3-yl]cyclopropyl]amino)methyl]phenyl}-N-[2-(2-hydroxyethoxy)ethyl]-N-[(2S,3R,4R,5R)-2,3,4,5,6-pentahydroxyhexyl]hexanamide]",< 100 nM
2,"O=C(NCCCCCS(=O)(=O)c1ccc(Cl)c(COC2(c3cnccc3-c3ccccc3OC3CC3)CC2)c1)[C@@H](O)[C@@H](O)[C@H](O)[C@@H](O)CO [Compound I-608, (2S,3S,4R,5S)-N-{5-[4-chloro-3-({1-[4-(2-cyclopropoxyphenyl)pyridin-3-yl]cyclopropoxy}methyl)benzenesulfonyl]pentyl}-2,3,4,5,6-pentahydroxyhexanamide]",< 100 nM
3,"O=C([C@@H](O)[C@@H](O)[C@H](O)[C@@H](O)CO)N(CCCSc1ccc(Cl)c(CNC2(c3cnccc3-c3ccccc3OC3CC3)CC2)c1)CCOCCO [Compound I-526, (2S,3S,4R,5S)-N-[3-({4-chloro-3-[({1-[4-(2-cyclopropoxyphenyl)pyridin-3-yl]cyclopropyl}amino)methyl]phenyl}sulfanyl)propyl]-2,3,4,5,6-pentahydroxy-N-[2-(2-hydroxyethoxy)ethyl]hexanamide]",126 to 1000 nM
4,"CCNC(=O)[C@H](N)CCCCNS(=O)(=O)c1ccc(Cl)c(COC2(c3cnccc3-c3ccccc3OC3CC3)CC2)c1 [Compound I-481, (2R)-2-amino-6-[4-chloro-3-({1-[4-(2-cyclopropoxyphenyl)pyridin-3-yl]cyclopropoxy}methyl)benzenesulfonamido]-N-ethylhexanamide]",< 100 nM
5,"Clc1ccc(Cl)c(COC2(c3cnccc3-c3ccccc3OC3CCC3)CC2)c1 [Compound I-49, 4-(2-cyclobutoxyphenyl)-3-{1-[(2,5-dichlorophenyl)methoxy]cyclopropyl}pyridine]",< 100 nM
6,"Clc1ccc(Cl)c(CNC2(c3cnccc3-c3ccccc3)CC2)c1 [Compound I-14, N-[(2,5-dichlorophenyl)methyl]-1-(4-phenylpyridin-3-yl)cyclopropan-1-amine]",126 to 1000 nM
7,"Cc1ccc(C(C)CCCN(C)C(=O)[C@@H](O)[C@@H](O)[C@H](O)[C@@H](O)CO)cc1CNC1(c2cnccc2-c2ccccc2OC2CC2)CC1 (stereo partly drawn) [Compound I-301, (2S,3S,4R,5S)-N-(4-{3-[({1-[4-(2-cyclopropoxyphenyl)pyridin-3-yl]cyclopropyl}amino)methyl]-4-methylphenyl}pentyl)-2,3,4,5,6-pentahydroxy-N-methylhexanamide]",< 100 nM
8,"CC(CCCN(CCCCNS(C)(=O)=O)C(=O)[C@@H](O)[C@@H](O)[C@H](O)[C@@H](O)CO)c1ccc(Cl)c(CNC2(c3cnccc3-c3ccccc3OC3CC3)CC2)c1 (stereo partly drawn) [Compound I-297, (2S,3S,4R,5S)-N-(4-{4-chloro-3-[({1-[4-(2-cyclopropoxyphenyl)pyridin-3-yl]cyclopropyl}amino)methyl]phenyl}pentyl)-2,3,4,5,6-pentahydroxy-N-(4-methanesulfonamidobutyl) hexanamide]",< 100 nM
9,"CCN(C[C@H](O)[C@@H](O)[C@H](O)[C@H](O)CO)C(=O)NCCCCc1cc(Cl)c(COC2(c3cnccc3-c3ccccc3OC3CC3)CC2)cc1C [Compound I-94, 3-(4-(5-chloro-4-((1-(4-(2-cyclopropoxyphenyl)pyridin-3-yl)cyclopropoxy)methyl)-2-methylphenyl)butyl)-1-ethyl-1-((2S,3R,4R,5R)-2,3,4,5,6-pentahydroxyhexyl)urea]",< 100 nM
10,"O=C(O)CN(C[C@H](O)[C@@H](O)[C@H](O)[C@H](O)CO)C(=O)CCCCc1cc(Cl)c(COC2(c3cnccc3-c3ccccc3OC3CC3)CC2)cc1Cl [Compound I-87, 2-(5-(2,5-dichloro-4-((1-(4-(2-cyclopropoxyphenyl)pyridin-3-yl)cyclopropoxy)methyl)phenyl)-N-((2S,3R,4R,5R)-2,3,4,5,6-pentahydroxyhexyl)pentanamido)acetic acid]",< 100 nM
11,"CC(OCc1cc(S(=O)(=O)N(CCCCNC(=O)NC[C@H](O)[C@@H](O)[C@H](O)[C@H](O)CO)C(C)C)ccc1Cl)c1cnccc1-c1ccccc1OC1CC1 (stereo partly drawn) [Compound I-753, 4-chloro-3-((1-(4-(2-cyclopropoxyphenyl)pyridin-3-yl)ethoxy)methyl)-N-isopropyl-N-(4-(3-((2S,3R,4R,5R)-2,3,4,5,6-pentahydroxyhexyl)ureido)butyl)benzenesulfonamide]",< 100 nM
12,"CCNC(=O)CCN(C[C@H](O)[C@@H](O)[C@H](O)[C@H](O)CO)C(=O)CCCSc1ccc(Cl)c(COC2(c3cnccc3-c3ccccc3OC3CC3)CC2)c1 [Compound I-672, 4-{[4-chloro-3-({1-[4-(2-cyclopropoxyphenyl)pyridin-3-yl]cyclopropoxy}methyl)phenyl]sulfanyl}-N-[2-(ethylcarbamoyl)ethyl]-N-[(2S,3R,4R,5R)-2,3,4,5,6-pentahydroxyhexyl]butanamide]",126 to 1000 nM
13,"O=C(CCCSc1ccc(Cl)c(COC2(c3cnccc3-c3ccccc3OC3CC3)CC2)c1)N(C[C@H](O)[C@@H](O)[C@H](O)[C@H](O)CO)C1CCOCC1 [Compound I-669, 4-{[4-chloro-3-({1-[4-(2-cyclopropoxyphenyl)pyridin-3-yl]cyclopropoxy}methyl)phenyl]sulfanyl}-N-(oxan-4-yl)-N-[(2S,3R,4R,5R)-2,3,4,5,6-pentahydroxyhexyl]butanamide]",126 to 1000 nM
14,"CC(OCc1cc(Cl)ccc1Cl)c1cnccc1-c1ccccc1OC1CC1 (stereo not drawn) [Compound I-745, 4-(2-cyclopropoxyphenyl)-3-(1-((2,5-dichlorobenzyl)oxy)ethyl)pyridine]",126 to 1000 nM
15,"Fc1ccc(OC2CC2)c(-c2ccncc2C2(NCc3cc(Cl)ccc3Cl)CC2)c1 [Compound I-3, 1-[4-(2-cyclopropoxy-5-fluorophenyl)pyridin-3-yl]-N-[(2,5-dichlorophenyl)methyl]cyclopropan-1-amine]",< 100 nM
16,"CCN(CCCCNC(=O)NC[C@H](O)[C@@H](O)[C@H](O)[C@H](O)CO)S(=O)(=O)c1ccc(Cl)c(CNC2(c3cnccc3-c3ccccc3OC3CC3)CC2)c1 [Compound I-473, 1-(4-{N-ethyl4-chloro-3-[({1-[4-(2-cyclopropoxyphenyl)pyridin-3-yl]cyclopropyl}amino)methyl]benzenesulfonamido}butyl)-3-[(2S,3R,4R,5R)-2,3,4,5,6-pentahydroxyhexyl]urea]",< 100 nM
17,"CC(CCCC(=O)N1CCC(NC(=O)NC[C@H](O)[C@@H](O)[C@H](O)[C@H](O)CO)CC1)c1ccc(Cl)c(CNC2(c3cnccc3-c3ccccc3OC3CC3)CC2)c1 (stereo partly drawn) [Compound I-320, 1-[1-(5-{4-chloro-3-[({1-[4-(2-cyclopropoxyphenyl)pyridin-3-yl]cyclopropyl}amino)methyl]phenyl}hexanoyl)piperidin-4-yl]-3-[(2S,3R,4R,5R)-2,3,4,5,6-pentahydroxyhexyl]urea]",< 100 nM
18,"O=C(NCCCCCOc1ccc(Cl)c(COC2(c3cnccc3-c3ccccc3OC3CC3)CC2)c1)NC[C@H](O)[C@@H](O)[C@H](O)[C@H](O)CO [Compound I-726, 1-(5-(4-chloro-3-((1-(4-(2-cyclopropoxyphenyl)pyridin-3-yl)cyclopropoxy)methyl)phenoxy)pentyl)-3-((2S,3R,4R,5R)-2,3,4,5,6-pentahydroxyhexyl)urea]",126 to 1000 nM
